Laboratory results reported in ChEMBL document CHEMBL2440076, “New triarylpyrazoles as broad-spectrum anticancer agents: design, synthesis, and biological evaluation” (Eur J Med Chem, 2013).

Columns and labels:
Format in all cases: functional
PC-3 [1] = assay: Growth inhibition of human PC3 cells assessed as cell growth at 5X10'-8 M after 48 hrs by sulforhodamine B assay; details: PC-3, 48 h, read-out: Activity
OVCAR-4 = assay: Growth inhibition of human OVCAR4 cells assessed as cell growth at 5X10'-7 M after 48 hrs by sulforhodamine B assay; details: OVCAR-4, 48 h, read-out: Activity
OVCAR-3 = assay: Growth inhibition of human OVCAR3 cells assessed as cell growth at 5X10'-7 M after 48 hrs by sulforhodamine B assay; details: OVCAR-3, 48 h, read-out: Activity
PC-3 [2] = assay: Growth inhibition of human PC3 cells assessed as cell growth at 5X10'-5 M after 48 hrs by sulforhodamine B assay; details: PC-3, 48 h, read-out: Activity
HOP-62 [3] = assay: Growth inhibition of human HOP62 cells assessed as cell growth at 5X10'-5 M after 48 hrs by sulforhodamine B assay; details: HOP-62, 48 h, read-out: Activity
A498 [4] = assay: Growth inhibition of human A498 cells assessed as cell growth at 5X10'-8 M after 48 hrs by sulforhodamine B assay; details: A498, 48 h, read-out: Activity
NCI-H226 [5] = assay: Growth inhibition of human NCI-H226 cells assessed as cell growth at 5X10'-7 M after 48 hrs by sulforhodamine B assay; details: NCI-H226, 48 h, read-out: Activity
HCT-116 [6] = assay: Growth inhibition of human HCT116 cells assessed as cell growth at 5X10'-7 M after 48 hrs by sulforhodamine B assay; details: HCT-116, 48 h, read-out: Activity
RPMI-8226 = assay: Growth inhibition of human RPMI8226 cells assessed as cell growth at 5X10'-6 M after 48 hrs by sulforhodamine B assay; details: RPMI-8226, 48 h, read-out: Activity
786-0 = assay: Growth inhibition of human 786-0 cells assessed as cell growth at 5X10'-5 M after 48 hrs by sulforhodamine B assay; details: 786-0, 48 h, read-out: Activity
[7] = Growth inhibition of human NCI-ADR-RES cells assessed as cell growth at 5X10'-9 M after 48 hrs by sulforhodamine B assay; details: read-out: Activity
SF-268 = assay: Growth inhibition of human SF268 cells assessed as cell growth at 5X10'-7 M after 48 hrs by sulforhodamine B assay; details: SF-268, 48 h, read-out: Activity
SK-MEL-2 = assay: Growth inhibition of human SK-MEL-2 cells assessed as cell growth at 5X10'-8 M after 48 hrs by sulforhodamine B assay; details: SK-MEL-2, 48 h, read-out: Activity
NCI-H226 [8] = assay: Growth inhibition of human NCI-H226 cells assessed as cell growth at 5X10'-9 M after 48 hrs by sulforhodamine B assay; details: NCI-H226, 48 h, read-out: Activity
M14 [9] = assay: Growth inhibition of human M14 cells assessed as cell growth at 5X10'-7 M after 48 hrs by sulforhodamine B assay; details: M14, 48 h, read-out: Activity
DU-145 = assay: Growth inhibition of human DU145 cells assessed as cell growth at 5X10'-9 M after 48 hrs by sulforhodamine B assay; details: DU-145, 48 h, read-out: Activity
TK-10 = assay: Growth inhibition of human TK10 cells assessed as cell growth at 5X10'-6 M after 48 hrs by sulforhodamine B assay; details: TK-10, 48 h, read-out: Activity
HOP-62 [10] = assay: Growth inhibition of human HOP62 cells assessed as cell growth at 5X10'-9 M after 48 hrs by sulforhodamine B assay; details: HOP-62, 48 h, read-out: Activity
LOX IMVI = assay: Growth inhibition of human LOXIMVI cells assessed as cell growth at 5X10'-9 M after 48 hrs by sulforhodamine B assay; details: read-out: Activity
CAKI-1 [11] = assay: Growth inhibition of human CAKI-1 cells assessed as cell growth at 5X10'-5 M after 48 hrs by sulforhodamine B assay; details: CAKI-1, 48 h, read-out: Activity
A498 [12] = assay: Growth inhibition of human A498 cells assessed as cell growth at 5X10'-5 M after 48 hrs by sulforhodamine B assay; details: A498, 48 h, read-out: Activity
BT-549 = assay: Growth inhibition of human BT549 cells assessed as cell growth at 5X10'-5 M after 48 hrs by sulforhodamine B assay; details: BT-549, 48 h, read-out: Activity
SK-OV-3 = assay: Growth inhibition of human SKOV3 cells assessed as cell growth at 5X10'-8 M after 48 hrs by sulforhodamine B assay; details: SK-OV-3, 48 h, read-out: Activity
ACHN = assay: Growth inhibition of human ACHN cells assessed as cell growth at 5X10'-9 M after 48 hrs by sulforhodamine B assay; details: read-out: Activity
SN12C = assay: Growth inhibition of human SN12C cells assessed as cell growth at 5X10'-6 M after 48 hrs by sulforhodamine B assay; details: read-out: Activity
[13] = Growth inhibition of human HCC2998 cells assessed as cell growth at 5X10'-6 M after 48 hrs by sulforhodamine B assay; details: HCC 2998, 48 h, read-out: Activity
HCT-116 [14] = assay: Growth inhibition of human HCT116 cells assessed as cell growth at 5X10'-6 M after 48 hrs by sulforhodamine B assay; details: HCT-116, 48 h, read-out: Activity
HL-60(TB) = assay: Growth inhibition of human HL-60(TB) cells assessed as cell growth at 5X10'-5 M after 48 hrs by sulforhodamine B assay; details: HL-60, 48 h, read-out: Activity
COLO 205 = assay: Growth inhibition of human COLO205 cells assessed as cell growth at 5X10'-6 M after 48 hrs by sulforhodamine B assay; details: COLO 205, 48 h, read-out: Activity
M14 [15] = assay: Growth inhibition of human M14 cells assessed as cell growth at 5X10'-8 M after 48 hrs by sulforhodamine B assay; details: M14, 48 h, read-out: Activity
[16] = Growth inhibition of human Hs 578T cells assessed as cell growth at 5X10'-5 M after 48 hrs by sulforhodamine B assay; details: read-out: Activity
MOLT-4 = assay: Growth inhibition of human MOLT4 cells assessed as cell growth at 5X10'-5 M after 48 hrs by sulforhodamine B assay; details: MOLT-4, 48 h, read-out: Activity
T47D = assay: Growth inhibition of human T47D cells assessed as cell growth at 5X10'-7 M after 48 hrs by sulforhodamine B assay; details: read-out: Activity
CAKI-1 [17] = assay: Growth inhibition of human CAKI-1 cells assessed as cell growth at 5X10'-8 M after 48 hrs by sulforhodamine B assay; details: CAKI-1, 48 h, read-out: Activity
KM12 = assay: Growth inhibition of human KM12 cells assessed as cell growth at 5X10'-9 M after 48 hrs by sulforhodamine B assay; details: KM12, 48 h, read-out: Activity
SK-MEL-28 = assay: Growth inhibition of human SK-MEL-28 cells assessed as cell growth at 5X10'-6 M after 48 hrs by sulforhodamine B assay; details: SK-MEL-28, 48 h, read-out: Activity
SNB-19 = assay: Growth inhibition of human SNB19 cells assessed as cell growth at 5X10'-5 M after 48 hrs by sulforhodamine B assay; details: SNB-19, 48 h, read-out: Activity

SMILES	growth at 0.05 µM (PC-3 [1]) [%]	growth at 0.5 µM (OVCAR-4) [%]	growth at 0.5 µM (OVCAR-3) [%]	growth at 50 µM (PC-3 [2]) [%]	growth at 50 µM (HOP-62 [3]) [%]	growth at 0.05 µM (A498 [4]) [%]	growth at 0.5 µM (NCI-H226 [5]) [%]	growth at 0.5 µM (HCT-116 [6]) [%]	growth at 5 µM (RPMI-8226) [%]	growth at 50 µM (786-0) [%]	growth at 0.005 µM [7] [%]	growth at 0.5 µM (SF-268) [%]	growth at 0.05 µM (SK-MEL-2) [%]	growth at 0.005 µM (NCI-H226 [8]) [%]	growth at 0.5 µM (M14 [9]) [%]	growth at 0.005 µM (DU-145) [%]	growth at 5 µM (TK-10) [%]	growth at 0.005 µM (HOP-62 [10]) [%]	growth at 0.005 µM (LOX IMVI) [%]	growth at 50 µM (CAKI-1 [11]) [%]	also measured
O=C(Nc1cccc(-n2cc(-c3ccncc3)c(-c3ccc(Cl)c(O)c3)n2)c1)c1ccc(N2CCOCC2)c(C(F)(F)F)c1	96	112	106	7	6	83	99	99	9	-53	97	104	98	98	84	98	94	91	95	-15	growth at 50 µM (A498 [12]): 6%; growth at 50 µM (BT-549): 36%; growth at 0.05 µM (SK-OV-3): 98%; growth at 0.005 µM (ACHN): 102%; growth at 5 µM (SN12C): 70%; growth at 5 µM [13]: 53%; growth at 5 µM (HCT-116 [14]): 35%; growth at 50 µM (HL-60(TB)): 4%; growth at 5 µM (COLO 205): 87%; growth at 0.05 µM (M14 [15]): 94%; growth at 50 µM [16]: 8%; growth at 50 µM (MOLT-4): -5%; growth at 0.5 µM (T47D): 105%; growth at 0.05 µM (CAKI-1 [17]): 99%; growth at 0.005 µM (KM12): 94%; growth at 5 µM (SK-MEL-28): 5%; growth at 50 µM (SNB-19): 16%
O=C(Nc1cccc(-n2cc(-c3ccncc3)c(-c3ccc(Cl)c(O)c3)n2)c1)Nc1cc(C(F)(F)F)cc(C(F)(F)F)c1	89	65	43	-49	-90	86	79	46	4	-71	102	73	113	98	59	106	-13	95	98	-67	growth at 50 µM (A498 [12]): -95%; growth at 50 µM (BT-549): -90%; growth at 0.05 µM (SK-OV-3): 102%; growth at 0.005 µM (ACHN): 103%; growth at 5 µM (SN12C): 2%; growth at 5 µM [13]: -43%; growth at 5 µM (HCT-116 [14]): -87%; growth at 50 µM (HL-60(TB)): -4%; growth at 5 µM (COLO 205): -94%; growth at 0.05 µM (M14 [15]): 104%; growth at 50 µM [16]: -40%; growth at 50 µM (MOLT-4): -29%; growth at 0.5 µM (T47D): 88%; growth at 0.05 µM (CAKI-1 [17]): 92%; growth at 0.005 µM (KM12): 105%; growth at 5 µM (SK-MEL-28): -85%; growth at 50 µM (SNB-19): -47%
COc1cc(-c2nn(-c3cccc(NC(=O)Nc4cccc(C(F)(F)F)c4)c3)cc2-c2ccncc2)ccc1Cl	90	73	56	-22	-32	87	84	66	-10	-22	99	87	98	100	73	105	10	93	95	-21	growth at 50 µM (A498 [12]): -20%; growth at 50 µM (BT-549): -26%; growth at 0.05 µM (SK-OV-3): 99%; growth at 0.005 µM (ACHN): 104%; growth at 5 µM (SN12C): 12%; growth at 5 µM [13]: -23%; growth at 5 µM (HCT-116 [14]): 3%; growth at 50 µM (HL-60(TB)): 5%; growth at 5 µM (COLO 205): -78%; growth at 0.05 µM (M14 [15]): 97%; growth at 50 µM [16]: -6%; growth at 50 µM (MOLT-4): -17%; growth at 0.5 µM (T47D): 85%; growth at 0.05 µM (CAKI-1 [17]): 98%; growth at 0.005 µM (KM12): 104%; growth at 5 µM (SK-MEL-28): -18%; growth at 50 µM (SNB-19): -18%
